Experiments:
[1] = tested on: SLAC1; test: Two-electrode voltage clamp recordings of SLAC1 currents in Xenopus oocytes; type: cell-based, Arabidopsis; conditions: Xenopus oocytes co-injected with PYL9/RCAR1, ABI1, OST1/SnRK2.6, SLAC1 with or without M3Ks, 50 μM ABA
Description: The PCR amplified cDNA fragments of OST1, SLAC1, PYL9/RCAR1, ABI1, M3Kδ1, M3Kδ6 and M3Kδ7 were cloned into the oocyte expression vector pNB1 by using an advanced uracil-excision based cloning strategy as previously described^60. The mutant isoforms OST1-S171A, M3Kδ6-K775W and M3Kδ7-K740W were generated using the Quikchange Site-Directed Mutagenesis kit (Agilent Technologies). Linearized plasmids were used to generate cRNAs via the mMESSAGE mMACHINE® T7 kit (Thermo Fisher Scientific, Catalog number: AM1344). […] Steady state currents were recorded with 3 second voltage pulses ranging from +40 mV to −120 mV in −20 mV decrements, followed by a “tail” voltage of −120 mV and the holding potential was kept at 0 mV.
SLAC1-mediated currents in oocytes vary showing either time-dependent relaxation or more instantaneous currents when using a chloride bath solution^61,62. […] To avoid time-of-measurement and inter-batch dependence in the data, H2O-injected control and other indicated controls were included in each batch of oocytes and control experiments were recorded intermittently with the investigated conditions.
a and b, In vitro reconstitution of ABA-induced OST1/SnRK2 activation without M3Kδ6 (a) or with M3Kδ6 (b). […] Phosphorylation of AKS1 is detected by binding of 14-3-3Phi (At1g35160) to the phosphorylated AKS1 protein^15. […]

[2] = tested on: S-type anion channels; test: Patch-clamp analyses of S-type anion channel currents in guard cell protoplasts; type: cell-based, Arabidopsis; conditions: 10 μM, guard cells of wildtype (Col-0) and HsMYO control line
Protocol: Guard cell protoplasts from 4 to 6 week-old Arabidopsis plants were prepared^24,33 ABA-activated S-type anion channel current recordings were carried out by using an Axon 200A amplifier (Axon instruments) and a Digidata 1440A low-noise data acquisition system. Epidermal tissues were isolated from one or two rosette leaves and collected using a nylon mesh (100-μm pore size). […]
S-type anion currents in guard cell protoplasts were recorded using the whole-cell patch-clamp technique^24,33. […]
a, Leaves from m3k amiRNAi and the control amiRNA-HsMYO line (expressing an amiRNA targeting human myosin 2), which has no target gene in Arabidopsis plants were analyzed in time-resolved stomatal conductance analyses in which 1 μM ABA was added to the transpiration stream via the petiole (as described in e.g., Ceciliato, P. et al. Plant Methods 15, doi:10.1186/s13007-019-0423-y (2019)) as indicted by the red arrowhead (n=3 leaves from 3 independent plants per genotype, +/−s.d.). b, Normalized relative stomatal conductance to the first data point shown in (a). c-h, ABA-activated S-type anion channel currents were investigated by patch-clamp analyses using guard cell protoplasts from the wildtype parent Col-0 (c, d), the HsMYO amiRNA control line (e, f), and the m3k amiRNA line (g, h). […]

[3] = tested on: OST1/SnRK2.6; test: In vivo Ser-171 phosphorylation of OST1/SnRK2.6-GFP in mesophyll cell protoplasts by LC-MS/MS; type: cell-based, Arabidopsis; conditions: 20 μM ABA for 15 min vs control
Protocol: 30 μg GST-OST1/SnRK2.6(D140A) and 2.5 μg GST-M3Kδ1 kinase domain were incubated in phosphorylation buffer (50 mM Tris-HCl pH 7.5, 10 mM MgCl2, 0.1% Triton X-100, and 1 mM DTT) with 1 mM ATP for 2 hr at room temperature. Proteins were precipitated by acetone precipitation and dissolved in SDS-PAGE loading buffer. After SDS-PAGE and CBB staining, protein bands of GST-OST1/SnRK2.6(D140A) were excised and analyzed by LC-MS/MS^17. For in vivo Ser-171 phosphorylation, OST1/SnRK2.6-GFP was transiently expressed in Arabidopsis mesophyll cell protoplasts. The protoplasts were incubated with or without 20 μM ABA for 15 min, and OST1/SnRK2.6 proteins were purified by immunoprecipitation using anti-GFP antibodies. After SDS-PAGE and CBB staining, OST1/SnRK2.6-GFP bands were excised and analyzed by LC-MS/MS^17
a, The sequence of identified phosphorylated peptide by mass spectrometry. OST1/SnRK2.6-GFP was expressed in Arabidopsis mesophyll cell protoplasts and purified by immunoprecipitation with GFP antibodies before or after 20 μM ABA treatment for 15 min. S(+79.97) indicates phosphorylated serine residues. Values (Control and ABA) indicate normalized peak areas for phosphorylated peptides. The phosphorylated peptide was not detected in the control sample.

[4] = biological target: T1, OST1/SnRK2.6 (Arabidopsis thaliana, UniProt Q940H6); test: In vitro phosphorylation assay of CIAP-dephosphorylated GST-OST1/SnRK2.6 with other protein kinases; type: biochemical; conditions: GST-OST1/SnRK2.6 dephosphorylated by CIAP, [γ-32P]-ATP
T1 construct: made in house; host or cells: E. coli
T1 sequence (Q940H6 1-362): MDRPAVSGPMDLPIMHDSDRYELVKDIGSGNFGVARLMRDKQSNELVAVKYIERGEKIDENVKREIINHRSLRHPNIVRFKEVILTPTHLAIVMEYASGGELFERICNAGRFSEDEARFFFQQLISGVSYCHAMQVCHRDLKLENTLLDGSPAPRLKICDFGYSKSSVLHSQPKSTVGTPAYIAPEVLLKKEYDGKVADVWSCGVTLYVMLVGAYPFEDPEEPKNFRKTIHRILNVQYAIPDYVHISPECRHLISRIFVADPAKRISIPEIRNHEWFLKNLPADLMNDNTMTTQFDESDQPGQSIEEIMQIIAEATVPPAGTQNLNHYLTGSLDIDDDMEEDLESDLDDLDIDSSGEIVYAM
Protocol: We investigated phosphorylation of purified recombinant GST-tagged OST1/SnRK2.6 protein kinase after dephosphorylation in vitro. To test whether OST1/SnRK2.6 could be re-activated by autophosphorylation, after dephosphorylation, the GST-OST1/SnRK2.6 protein bound on glutathione sepharose 4B resin was incubated with calf intestinal alkaline phosphatase (CIAP), and [γ-^32P]-ATP was added to the reaction after wash out of CIAP. […] Therefore, another unknown protein kinase may be required for reversible ABA signal transduction.
10 μg GST-OST1/SnRK2.6 proteins were bound to glutathione sepharose 4B beads and incubated with 30 U CIAP for 2 hr at room temperature. […]
a, Seeds of amiR-HsMYO wild-type (control line) or amiR-ax1117 mutant were sowed on ½ MS medium containing 2 μM ABA, or 0.02% EtOH as control, for germination assays. Representative images showing seed germination after 6 days. b, The percentage of seedlings showing green cotyledons was analyzed. […] In-gel kinase assays were performed using histone type III-S as a substrate. e, SnRK2 band intensities as shown in (d) were measured using ImageJ, n=3 experiments, error bars show +/−s.e.m. f, Recombinant GST-OST1/SnRK2.6 protein was dephosphorylated by alkaline phosphatase in vitro and used for in vitro phosphorylation assays after incubation with CPK6, CPK23 or MPK12 protein kinases. […]

## CC1=CC(=O)CC(C)(C)[C@@]1(O)/C=C/C(C)=C\C(=O)O [ABA, abscisic acid]
[1]
  ABA-dependent SLAC1 anion channel activation: could activate SLAC1 in oocytes only in the presence of low concentrations of either M3Kδ1, M3Kδ6 or M3Kδ7 mRNAs
[2]
  activation of S-type anion currents in guard cells: typical ABA activation of S-type anion currents
[3]
  phosphorylation of OST1 Ser171 in mesophyll cells: clearly phosphorylated

## CPK23: calcium-dependent protein kinase of ABA signalling
[4]
  phosphorylation of OST1/SnRK2.6 after dephosphorylation: did not phosphorylate
